Test results from ChEMBL document CHEMBL1156116, “Histone deacetylase and microtubules as targets for the synthesis of releasable conjugate compounds” (Bioorg Med Chem Lett, 2009).
pIC50: −log10 of the molar value. Active and inactive are the calls of the source. The rule behind the calls is not given here.

Tests used:
[1] = target: T1, Protein deacetylase HDAC6 (Homo sapiens) (UniProt Q9UBN7); assay: Inhibition of human HDAC6 in human IGROV1 cells assessed as alpha-tubulin acetylation at 0.33 to 0.1 uM after 48 hrs by Western blot analysis; assay type: cell-based; conditions: IGROV-1
T1 sequence (whole entry): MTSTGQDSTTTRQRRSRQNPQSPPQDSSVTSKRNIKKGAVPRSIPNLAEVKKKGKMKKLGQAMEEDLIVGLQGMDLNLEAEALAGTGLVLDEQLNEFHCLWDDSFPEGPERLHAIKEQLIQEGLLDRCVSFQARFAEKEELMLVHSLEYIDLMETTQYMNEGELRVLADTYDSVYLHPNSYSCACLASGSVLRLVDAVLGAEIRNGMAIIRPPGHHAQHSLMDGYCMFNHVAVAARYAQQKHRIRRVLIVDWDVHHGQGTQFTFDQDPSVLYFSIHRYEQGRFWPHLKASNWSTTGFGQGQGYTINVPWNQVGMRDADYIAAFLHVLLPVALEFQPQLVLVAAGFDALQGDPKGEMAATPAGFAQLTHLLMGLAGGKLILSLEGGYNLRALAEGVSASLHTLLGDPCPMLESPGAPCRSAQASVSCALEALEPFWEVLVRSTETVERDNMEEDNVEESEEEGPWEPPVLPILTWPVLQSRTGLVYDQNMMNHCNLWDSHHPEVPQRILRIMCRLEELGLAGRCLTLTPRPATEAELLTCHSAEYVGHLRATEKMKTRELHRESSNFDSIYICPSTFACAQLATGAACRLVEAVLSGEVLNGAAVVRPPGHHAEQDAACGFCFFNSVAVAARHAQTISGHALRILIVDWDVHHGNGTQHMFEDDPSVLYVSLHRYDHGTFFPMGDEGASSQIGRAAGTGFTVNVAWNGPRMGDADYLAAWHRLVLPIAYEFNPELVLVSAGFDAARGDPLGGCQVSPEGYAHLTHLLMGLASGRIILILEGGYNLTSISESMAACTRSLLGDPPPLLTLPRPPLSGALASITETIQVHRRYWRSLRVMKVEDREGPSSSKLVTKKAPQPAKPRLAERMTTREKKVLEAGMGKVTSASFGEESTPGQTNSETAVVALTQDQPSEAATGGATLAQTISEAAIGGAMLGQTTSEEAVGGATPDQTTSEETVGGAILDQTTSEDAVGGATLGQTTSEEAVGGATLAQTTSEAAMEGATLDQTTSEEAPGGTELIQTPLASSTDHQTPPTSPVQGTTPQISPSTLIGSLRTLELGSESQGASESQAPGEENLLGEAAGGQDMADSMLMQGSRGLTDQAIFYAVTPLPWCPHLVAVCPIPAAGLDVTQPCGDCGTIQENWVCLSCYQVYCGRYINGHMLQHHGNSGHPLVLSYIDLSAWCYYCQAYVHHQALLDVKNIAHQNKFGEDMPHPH

IGROV-1 [2] = assay: Antiproliferative activity against human IGROV1 cells assessed as growth inhibition after 72 hrs by Coulter counting analysis; assay type: functional, cell-based; conditions: IGROV-1, 72 h
IGROV-1 [3] = assay: Induction of apoptosis in human IGROV1 cells at IC80 concentration by TUNEL assay; assay type: functional
[4] = target: Histone deacetylase 1 (Homo sapiens) (UniProt Q13547); assay: Inhibition of human HDAC1 in human IGROV1 cells assessed as histone H4 acetylation after 4 hrs by Western blot analysis; assay type: cell-based; conditions: IGROV-1
Sequence of Histone deacetylase 1 (Homo sapiens) (Q13547 whole entry): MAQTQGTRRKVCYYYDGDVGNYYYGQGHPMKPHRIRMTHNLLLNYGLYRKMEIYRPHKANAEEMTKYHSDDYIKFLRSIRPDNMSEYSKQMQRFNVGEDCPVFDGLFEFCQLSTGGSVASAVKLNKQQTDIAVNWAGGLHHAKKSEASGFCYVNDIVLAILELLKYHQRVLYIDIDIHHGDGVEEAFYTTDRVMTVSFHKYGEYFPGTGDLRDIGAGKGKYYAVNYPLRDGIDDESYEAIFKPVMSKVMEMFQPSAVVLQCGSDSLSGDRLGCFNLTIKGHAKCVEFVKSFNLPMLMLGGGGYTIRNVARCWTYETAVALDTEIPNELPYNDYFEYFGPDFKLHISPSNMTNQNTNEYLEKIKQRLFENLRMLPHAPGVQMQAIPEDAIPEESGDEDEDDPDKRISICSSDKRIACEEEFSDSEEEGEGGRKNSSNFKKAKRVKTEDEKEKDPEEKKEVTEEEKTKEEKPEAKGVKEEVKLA

[5] = target: T1, Protein deacetylase HDAC6 (Homo sapiens); assay: Inhibition of human HDAC6 in human IGROV1 cells assessed as alpha-tubulin acetylation after 4 hrs by Western blot analysis; assay type: cell-based; conditions: IGROV-1
[6] = target: T1, Protein deacetylase HDAC6 (Homo sapiens); assay: Inhibition of human HDAC6 in human IGROV1 cells assessed as alpha-tubulin acetylation at 0.1 uM after 48 hrs by Western blot analysis; assay type: cell-based; conditions: IGROV-1
[7] = target: Histone deacetylase 1 (Homo sapiens) (UniProt Q13547); assay: Inhibition of human HDAC1 in human IGROV1 cells assessed as histone H4 acetylation at 0.1 uM after 4 hrs by Western blot analysis; assay type: cell-based; conditions: IGROV-1

Row | SMILES | pIC50 (IGROV-1 [2]) | further results
1 | COc1cc2c(c(OC)c1OC)-c1ccc(SC)c(=O)cc1[C@@H](NC(=O)CCCSSCCCC(=O)OCCN(Cc1ccccc1)Cc1ccc(/C=C/C(=O)NO)cc1)CC2 | 7.11 | inhibition [1]: Active; Activity (IGROV-1 [3]): 45%
2 | C/C=C(\C)C(=O)N[C@@H](c1ccccc1)[C@@H](O)C(=O)O[C@H]1C[C@@]2(O)[C@@H](OC(=O)c3ccccc3)[C@@H]3[C@]4(OC(C)=O)CO[C@@H]4C[C@H](O)[C@@]3(C)C(=O)[C@H](OC(C)=O)C(=C1C)C2(C)C [CEPHALOMANNINE] | 6.52 | –
3 | CC(=O)O[C@H]1C(=O)[C@@]2(C)[C@H]([C@H](OC(=O)c3ccccc3)[C@]3(O)C[C@H](OC(=O)[C@H](O)[C@@H](NC(=O)c4ccccc4)c4ccccc4)C(C)=C1C3(C)C)[C@]1(OC(C)=O)CO[C@@H]1C[C@@H]2O [PACLITAXEL] | 7.22 | –
4 | O=C(/C=C/c1ccc(CNCc2ccccc2)cc1)NO | 6.32 | inhibition [4]: Dose-dependent effect; inhibition [5]: Dose-dependent effect
5 | CC(C)(C)OC(=O)N(Cc1ccccc1)Cc1ccc(/C=C/C(=O)NO)cc1 | 4.72 | –
6 | CC(C)(C)OC(=O)N(Cc1ccccc1)Cc1ccc(/C=C/C(=O)NOC2CCCCO2)cc1 (configuration not stated) | 4.39 | –
7 | O=C(/C=C/c1ccc(CN(CCO)Cc2ccccc2)cc1)NO | 7.74 | inhibition [4]: Dose-dependent effect; inhibition [5]: Dose-dependent effect
8 | COc1cc2c(c(OC)c1OC)-c1ccc(SC)c(=O)cc1[C@@H](NC(=O)CCCSSCCCC(=O)N[C@H]1CCc3cc(OC)c(OC)c(OC)c3-c3ccc(SC)c(=O)cc31)CC2 | 7.30 | inhibition [6]: Active; inhibition [7]: Active
9 | COc1cc2c(c(OC)c1OC)-c1ccc(SC)c(=O)cc1[C@@H](NC(=O)CCCSSCCCC(=O)O)CC2 | 7.72 | –
